Here are results for 1 compound from PMC7363588, “Mapping of the FGF14:Nav1.6 complex interface reveals FLPK as a functionally active peptide modulating excitability” (Physiological Reports, 2020).

Values joined by “and” are separate entries in the source; they are usually repeats but may differ in a detail not shown here. Identical values can stand only once. “Also recorded” adds a separate entry of the source. Peptide text beside a SMILES is read from it.

This test deals with T1, Nav1.6 (Homo sapiens, UniProt Q9UQD0).
T1 construct: expressed in transfected cells
The experiment in a line: Whole-cell patch-clamp, HEK-Nav1.6 cells expressing GFP. It is filed as cell-based. Conditions: 50 μM FLPK. How it is done:
HEK293 cells were maintained in DMEM and F‐12 (Invitrogen, Carlsbad, CA), supplemented with 0.05% glucose, 0.5 mM pyruvate, 10% fetal bovine serum, 100 units/ml penicillin, and 100 µg/ml streptomycin (Invitrogen), and incubated at 37 °C with 5% CO2. HEK293 cells stably expressing the human Nav1.6 channel (hereafter referred to as HEK‐Nav1.6 cells) were maintained similarly except for the addition of 500 μg/ml G418 (Invitrogen) to maintain stable Nav1.6 expression. Cells were transfected at 80%–90% confluence with equal amount (1 μg each) of plasmid pairs using Lipofectamine 2000 (Invitrogen) according to manufacturer's instructions. HEK‐Nav1.6 cells were washed and replated at very low density prior to electrophysiological recordings (Ali et al., 2016, 2018; Scala et al., 2018; Wadsworth et al., 2019).
HEK‐Nav1.6 cells transfected with GFP or FGF14‐GFP were plated at low density on glass cover slips for 3–4 hr and subsequently transferred to the recording chamber. Recordings were performed at room temperature (20–22°C) 24 hr posttransfection using a MultiClamp 700B amplifier (Molecular Devices, Sunnyvale, CA). The composition of recording solutions consisted of the following salts; extracellular (mM): 140 NaCl, 3 KCl, 1 MgCl2, 1 CaCl2, 10 HEPES, 10 glucose, pH 7.3; intracellular (mM): 130 CH3O3SCs, 1 EGTA, 10 NaCl, 10 HEPES, pH 7.3. Membrane capacitance and series resistance were estimated by the dial settings on the amplifier and compensated for electronically by 70%–75%. Data were acquired at 20 kHz and filtered at 5 kHz prior to digitization and storage. All experimental parameters were controlled by Clampex 9.2 software (Molecular Devices) and interfaced to the electrophysiological equipment using a Digidata 1,200 analog‐digital interface (Molecular Devices). Voltage‐dependent inward currents for HEK‐Nav1.6 cells were evoked by depolarization to test potentials between −100 mV and +60 mV from a holding potential of −70 mV followed by a voltage prestep pulse of −120 mV (Nav1.6). Steady‐state (fast) inactivation of Nav channels was measured with a paired‐pulse protocol. From the holding potential, cells were stepped to varying test potentials between −120 mV (Nav1.6) and +20 mV (prepulse) prior to a test pulse to −20 mV.
Current densities were obtained by dividing Na^+ current (INa) amplitude by membrane capacitance. Current–voltage relationships were generated by plotting current density as a function of the […]. Conductance (GNa) was calculated by the following equation: GNa=INa/Vm‐Erev where INa ^+ is the current amplitude at voltage Vm, and Erev is the Na^+ reversal potential.
Activation curves were derived by plotting normalized GNa as a function of test potential and fitted using the Boltzmann equation: GNa/GNa,Max=1/1+eVa‐Em/k where GNa,Max is the maximum conductance, Va is the membrane potential of half‐maximal activation, Vm is the membrane voltage and k is the slope factor.
The membrane potential of half‐maximal activation, Em is the membrane voltage and k is the slope factor. For steady‐state inactivation, normalized current amplitude (INa/INa,Max) at the test potential was plotted as a function of prepulse potential (Vm) and fitted using the Boltzmann equation: INa/INa,Max=1/1+e‐Vh‐Em/k where Vh is the potential of half‐maximal inactivation, Em is the membrane voltage, and k is the slope factor.
To test whether FLKP had any modulatory effects on Nav1.6‐mediated Na^+ currents, we used whole‐cell patch‐clamp electrophysiology in HEK293 cells stably expressing Nav1.6 (HEK‐Nav1.6) that were transiently transfected with either GFP (HEK‐Nav1.6 GFP) or FGF14‐1b‐GFP (HEK‐Nav1.6 FGF14‐GFP); each group was either treated with FLPK (50 μM from a stock solution dissolved in DMSO) or 0.1% DMSO alone (vehicle) (Figure 5a‐c). […]

T1 sequence (Q9UQD0 whole entry): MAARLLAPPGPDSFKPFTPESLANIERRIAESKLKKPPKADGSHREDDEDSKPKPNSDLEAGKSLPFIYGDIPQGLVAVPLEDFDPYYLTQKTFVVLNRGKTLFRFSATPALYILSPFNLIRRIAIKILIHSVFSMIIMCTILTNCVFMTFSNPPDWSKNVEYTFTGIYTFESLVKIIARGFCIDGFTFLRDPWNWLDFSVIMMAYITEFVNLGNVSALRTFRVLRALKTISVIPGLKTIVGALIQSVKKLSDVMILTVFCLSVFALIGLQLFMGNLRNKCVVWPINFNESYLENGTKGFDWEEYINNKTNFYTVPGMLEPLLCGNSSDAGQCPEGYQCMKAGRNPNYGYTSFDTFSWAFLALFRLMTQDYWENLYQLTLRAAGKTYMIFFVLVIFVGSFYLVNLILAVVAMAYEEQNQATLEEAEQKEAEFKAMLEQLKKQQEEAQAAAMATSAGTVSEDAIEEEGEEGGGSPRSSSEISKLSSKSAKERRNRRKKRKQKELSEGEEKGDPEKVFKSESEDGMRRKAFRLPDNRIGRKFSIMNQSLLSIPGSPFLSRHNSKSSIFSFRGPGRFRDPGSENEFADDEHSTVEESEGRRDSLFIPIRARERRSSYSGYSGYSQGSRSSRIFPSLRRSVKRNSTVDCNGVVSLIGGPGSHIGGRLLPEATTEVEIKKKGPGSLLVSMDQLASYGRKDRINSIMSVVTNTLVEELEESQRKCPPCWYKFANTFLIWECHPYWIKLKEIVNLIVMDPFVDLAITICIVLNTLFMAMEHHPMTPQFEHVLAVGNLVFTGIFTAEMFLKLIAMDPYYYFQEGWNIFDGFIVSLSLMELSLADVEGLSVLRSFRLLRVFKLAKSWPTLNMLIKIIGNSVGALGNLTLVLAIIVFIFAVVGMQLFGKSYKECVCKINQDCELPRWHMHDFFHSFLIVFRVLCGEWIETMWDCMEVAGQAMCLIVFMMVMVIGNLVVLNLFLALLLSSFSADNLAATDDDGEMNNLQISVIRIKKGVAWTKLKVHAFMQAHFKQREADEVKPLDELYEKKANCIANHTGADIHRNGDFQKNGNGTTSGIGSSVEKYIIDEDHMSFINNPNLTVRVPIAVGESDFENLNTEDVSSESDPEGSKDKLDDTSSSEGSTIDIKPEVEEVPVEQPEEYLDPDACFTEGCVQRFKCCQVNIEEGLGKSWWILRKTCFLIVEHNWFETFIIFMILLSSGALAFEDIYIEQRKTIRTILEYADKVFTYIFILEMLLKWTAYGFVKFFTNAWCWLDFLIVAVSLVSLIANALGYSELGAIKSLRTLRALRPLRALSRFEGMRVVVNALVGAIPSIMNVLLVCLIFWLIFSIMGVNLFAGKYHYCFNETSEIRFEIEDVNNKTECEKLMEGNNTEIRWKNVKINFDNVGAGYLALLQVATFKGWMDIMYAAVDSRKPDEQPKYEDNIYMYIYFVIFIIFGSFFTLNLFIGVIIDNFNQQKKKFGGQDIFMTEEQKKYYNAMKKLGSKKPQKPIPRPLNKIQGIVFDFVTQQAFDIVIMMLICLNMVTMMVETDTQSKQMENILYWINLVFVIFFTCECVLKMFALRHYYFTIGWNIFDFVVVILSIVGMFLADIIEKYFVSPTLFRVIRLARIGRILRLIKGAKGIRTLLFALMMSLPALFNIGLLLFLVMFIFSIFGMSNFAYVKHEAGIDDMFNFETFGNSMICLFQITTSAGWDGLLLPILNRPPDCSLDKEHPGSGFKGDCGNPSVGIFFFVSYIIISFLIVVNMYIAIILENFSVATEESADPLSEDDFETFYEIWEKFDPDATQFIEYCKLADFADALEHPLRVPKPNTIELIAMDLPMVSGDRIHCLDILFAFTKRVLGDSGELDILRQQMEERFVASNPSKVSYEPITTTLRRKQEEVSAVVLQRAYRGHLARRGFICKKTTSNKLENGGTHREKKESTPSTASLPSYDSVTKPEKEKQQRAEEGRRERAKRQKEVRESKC

As for `CC(=O)N[C@@H](Cc1ccccc1)C(=O)N[C@@H](CC(C)C)C(=O)N1CCC[C@H]1C(=O)N[C@@H](CCCCN)C(N)=O` [FLPK] (Ac-FLPK-NH2), under “HEK-Nav1.6 GFP vs 0.1% DMSO”, the “effect on Nav1.6 currents without FGF14” value is given as “not statistically different; also recorded: no measurable effects in cells expressing Nav1.6 alone”. Also, the “Tau (τ), decay time constant of I Na” value (HEK-Nav1.6 GFP, at −10 mV, mean ± SEM (n = 12), DMSO 1.0 ± 0.08, p = .0495) is 0.8 ± 0.03 ms and 0.8 ± 0.03 (12)r ms. Also, the “Peak density (I Na)” value (HEK-Nav1.6 GFP, at −10 mV, mean ± SEM (n = 14), DMSO −58.6 ± 13.9 (Table 3)) was −80.8 ± 12.2 pA/pF and −80.8 ± 12.2 (14) pA/pF. Under “HEK-Nav1.6 GFP, mean ± SEM (n = 10), DMSO 5.8 ± 0.4”, the Kinact is on record as 6.1 ± 0.5 (10) mV. Under “HEK-Nav1.6 GFP, mean ± SEM (n = 10), DMSO −58.9 ± 0.8”, the “Steady-state Inactivation (V1/2)” value is listed as −59.3 ± 1.9 (10) mV. The Kact (HEK-Nav1.6 GFP, mean ± SEM (n = 12), DMSO 4.3 ± 0.2) is given as 3.9 ± 0.3 (12) mV. Moreover, the “Activation (V1/2)” value (HEK-Nav1.6 GFP, mean ± SEM (n = 12), DMSO −21.8 ± 1.3) is recorded as −20.5 ± 1.2 (12) mV.
